This is an account of results in patent publication US11084808B2, “Oxopicolinamide derivative, preparation method therefor and pharmaceutical use thereof” (Jiangsu Hengrui Medicine Co., Ltd., priority 2016, dated 2021).

In one test the test system is human blood. The test is described as follows: In vitro anticoagulant effect on human blood (APTT, CT2). The format is biochemical. The following applies: Table 2; concentration of the compound corresponding to 2 times the APTT of the blank control; human plasma. The procedure:
Test Example 2: Determination of In Vitro Anticoagulant Effect of the Compounds of the Present Invention on Human Blood
1. Experimental Materials
Plasma: Human blood was collected in blood collection tubes containing no anticoagulant, and then 3.8% sodium citrate (volume ratio 1:9) was added. The tubes were centrifuged at 2500 rpm for 10 minutes at room temperature, and then the plasma was collected and stored at −80° C.:
Reagents: APTT reagent (Activated partial thromboplastin time assay kit, SIEMENS, Art. No. B4218-1), calcium chloride solution;
Instrument: Coagulation instrument (SYSMEX, CA-500).
The divided plasma was melted at room temperature and mixed well. 10000 μM the test compound dissolved in 100% DMSO was diluted to 3000, 300, 200, 150, 75, 30, 10, 3, 0.3 μM with 100% DMSO, and the blank was 100% DMSO. The reagent, plasma, and compound were placed in corresponding positions in the coagulation instrument, and APTT detection of the compound was carried out.
Curve fitting was carried out by graphpad and CT2 was calculated, i.e., the concentration of the compound corresponding to 2 times the APTT of the blank control.
On to `COc1cn([C@@H](CCOC(C)(C)C)C(=O)Nc2ccc(C(=O)O)cc2)c(=O)cc1-c1cc(Cl)ccc1C(C)=O` [Example 111, (S)-4-(2-(4-(2-acetyl-5-chlorophenyl)-5-methoxy-2-oxopyridin-1(2H)-yl)-4-(tert-butoxy)butanamido)benzoic acid], for which the “CT2 (compound concentration doubling APTT)” value amounted to 3.2 µM.

As to `CCNC(=O)c1ccc(NC(=O)[C@H](Cc2ccccc2)n2cc(OC)c(-c3cc(Cl)ccc3C(C)=O)cc2=O)cc1` [Example 37, (S)-4-(2-(4-(2-acetyl-5-chlorophenyl)-5-methoxy-2-oxopyridin-1(2H)-yl)-3-phenylpropanamido)-N-ethylbenzamide], the “CT2 (compound concentration doubling APTT)” value was 7.8 µM.

For the molecule `COc1cn([C@@H](Cc2ccccc2)C(=O)Nc2ccc3nn(C)cc3c2)c(=O)cc1-c1cc(Cl)ccc1C(C)=O` [Example 20, (S)-2-(4-(2-acetyl-5-chlorophenyl)-5-methoxy-2-oxopyridin-1(2H)-yl)-N-(2-methyl-2H-indazol-5-yl)-3-phenylpropanamide], the “CT2 (compound concentration doubling APTT)” value worked out at 6.5 µM.

For the molecule `COc1cn([C@@H](Cc2ccccn2)C(=O)Nc2ccc(C(N)=O)cc2)c(=O)cc1-c1cc(Cl)ccc1C(C)=O` [Example 85, (S)-4-(2-(4-(2-acetyl-5-chlorophenyl)-5-methoxy-2-oxopyridin-1(2H)-yl)-3-(pyridin-2-yl)propanamido)benzamide], the “CT2 (compound concentration doubling APTT)” value was found to be 6.5 µM.

Take `COc1cn(C(Cc2ccn(C3CC3)n2)C(=O)Nc2ccc(C(=O)O)cc2)c(=O)cc1-c1cc(Cl)ccc1C(C)=O` (stereo not drawn) [Example 93, 4-(2-(4-(2-acetyl-5-chlorophenyl)-5-methoxy-2-oxopyridin-1(2H)-yl)-3-(1-cyclopropyl-1H-pyrazol-3-yl)propanamido)benzoic acid]: the “CT2 (compound concentration doubling APTT)” value was 2.9 µM.

In the case of `COc1cn(C(Cc2ccccc2)C(=O)Nc2ccc(C(=O)O)cc2)c(=O)cc1-c1cc(Cl)ccc1C(=O)CC1CC1` (stereo not drawn) [Example 39, 4-(2-(4-(5-chloro-2-(2-cyclopropylacetyl)phenyl)-5-methoxy-2-oxopyridin-1(2H)-yl)-3-phenylpropanamido)benzoic acid], the “CT2 (compound concentration doubling APTT)” value amounted to 8.3 µM.

As for `COc1cn(C(Cc2ccn(C3CC3)n2)C(=O)Nc2ccc3nccnc3c2)c(=O)cc1-c1cc(Cl)ccc1C(C)=O` (stereo not drawn) [Example 96, 2-(4-(2-acetyl-5-chlorophenyl)-5-methoxy-2-oxopyridin-1(2H)-yl)-3-(1-cyclopropyl-1H-pyrazol-3-yl)-N-(quinoxalin-6-yl)propanamide], the “CT2 (compound concentration doubling APTT)” value came out at 6.7 µM.

As for `COc1cn([C@@H](Cc2ccccc2)C(=O)Nc2ccc(C(=O)O)cc2)c(=O)cc1-c1cc(Cl)ccc1C(C)=O` [Example 5, (S)-4-(2-(4-(2-acetyl-5-chlorophenyl)-5-methoxy-2-oxopyridin-1(2H)-yl)-3-phenylpropanamido)benzoic acid], the “CT2 (compound concentration doubling APTT)” value is 2.0 µM.

With `[2H]C([2H])([2H])C(=O)c1ccc(Cl)cc1-c1cc(=O)n([C@@H](Cc2ccccc2)C(=O)Nc2ccc(C(=O)O)cc2)cc1OC` [Example 183, 4-[[(2S)-2-[4-[5-chloro-2-(2,2,2-trideuteroacetyl)phenyl]-5-methoxy-2-oxo-1-pyridyl]-3-phenyl-propionyl]amino]benzoic acid], the “CT2 (compound concentration doubling APTT)” value stood at 2.6 µM.

For `COc1cn([C@@H](CCOC2CCC2)C(=O)Nc2ccc(C(=O)O)cc2)c(=O)cc1-c1cc(Cl)ccc1C(C)=O` [Example 164, (S)-4-(2-(4-(2-acetyl-5-chlorophenyl)-5-methoxy-2-oxopyridin-1(2H)-yl)-4-cyclobutoxybutanamido)benzoic acid], the “CT2 (compound concentration doubling APTT)” value is 6.4 µM.

Turning to `COc1cn([C@@H](Cc2cccc(C#N)c2)C(=O)Nc2ccc(C(=O)O)cc2)c(=O)cc1-c1cc(Cl)ccc1C(C)=O` [Example 89, (S)-4-(2-(4-(2-acetyl-5-chlorophenyl)-5-methoxy-2-oxopyridin-1(2H)-yl)-3-(3-cyanophenyl)propanamido)benzoic acid], the “CT2 (compound concentration doubling APTT)” value was determined as 5.7 µM.

As to `COc1cn([C@@H](Cc2ccccc2)C(=O)Nc2ccc(C(=O)O)cc2)c(=O)cc1-c1c(C(C)=O)ccc(Cl)c1F` [Example 31, (S)-4-(2-(4-(6-acetyl-3-chloro-2-fluorophenyl)-5-methoxy-2-oxopyridin-1(2H)-yl)-3-phenylpropanamido)benzoic acid], the “CT2 (compound concentration doubling APTT)” value worked out at 8.5 µM.

Regarding `COc1cn([C@H](Cc2ccccn2)C(=O)Nc2ccc(C(=O)O)cc2)c(=O)cc1-c1cc(Cl)ccc1C(C)=O` [Example 81, (R)-4-(2-(4-(2-acetyl-5-chlorophenyl)-5-methoxy-2-oxopyridin-1(2H)-yl)-3-(pyridin-2-yl)propanamido)benzoic acid], the “CT2 (compound concentration doubling APTT)” value is more than 10000 µM.

As for `CNC(=O)c1ccc(NC(=O)[C@H](Cc2ccccc2)n2cc(OC)c(-c3cc(Cl)ccc3C(C)=O)cc2=O)cc1` [Example 13, (S)-4-(2-(4-(2-acetyl-5-chlorophenyl)-5-methoxy-2-oxopyridin-1(2H)-yl)-3-phenylpropanamido)-N-methylbenzamide], the “CT2 (compound concentration doubling APTT)” value turned out to be 6.0 µM.

With `COc1cn([C@H](CC2CCC2)C(=O)Nc2ccc(C(=O)O)cc2)c(=O)cc1-c1c(C(C)=O)ccc(Cl)c1F` [Example 160, (R)-4-(2-(4-(6-acetyl-3-chloro-2-fluorophenyl)-5-methoxy-2-oxopyridin-1(2H)-yl)-3-cyclobutylpropanamido)benzoic acid], the “CT2 (compound concentration doubling APTT)” value was 3.8 µM.

Turning to `CCC(=O)c1ccc(Cl)cc1-c1cc(=O)n(C(CC2CCCCO2)C(=O)Nc2ccc(C(=O)O)cc2)cc1OC` (stereo not drawn) [Example 166], the “CT2 (compound concentration doubling APTT)” value is 7.2 µM.

Take `[2H]C([2H])([2H])Oc1cn([C@@H](CCOC(C)(C)C)C(=O)Nc2ccc(C(=O)O)cc2)c(=O)cc1-c1cc(Cl)ccc1C(=O)CC` [Example 177, 4-[[(2S)-4-tert-butoxy-2-[4-(5-chloro-2-propionyl-phenyl)-2-oxo-5-(trideuteromethoxy)-1-pyridyl]butyryl]amino]benzoic acid]: the “CT2 (compound concentration doubling APTT)” value is 1.5 µM.

For `CCC(=O)c1ccc(Cl)cc1-c1cc(=O)n(C(Cc2ccn(C)n2)C(=O)Nc2ccc(C(=O)O)cc2)cc1OC` (stereo not drawn) [Example 99, 4-(2-(4-(5-chloro-2-propionylphenyl)-5-methoxy-2-oxopyridin-1(2H)-yl)-3-(1-methyl-1H-pyrazol-3-yl)propanamido)benzoic acid], the “CT2 (compound concentration doubling APTT)” value stood at 3.5 µM.

Turning to `COCC[C@H](C(=O)Nc1ccc2[nH]c(C(=O)O)cc2c1)n1cc(OC)c(-c2cc(Cl)ccc2C(C)=O)cc1=O` [Example 3, (R)-5-(2-(4-(2-acetyl-5-chlorophenyl)-5-methoxy-2-oxopyridin-1(2H)-yl)-4-methoxybutanamido)-1H-indole-2-carboxylic acid], the “CT2 (compound concentration doubling APTT)” value is more than 10000 µM.

On to `CCC(=O)c1ccc(Cl)cc1-c1cc(=O)n([C@@H](Cc2ccccc2)C(=O)Nc2ccc(C(=O)O)cc2)cc1OC` [Example 9, (S)-4-(2-(4-(5-chloro-2-propionylphenyl)-5-methoxy-2-oxopyridin-1(2H)-yl)-3-phenylpropanamido)benzoic acid], for which the “CT2 (compound concentration doubling APTT)” value worked out at 2.4 µM.

On to `CCC(=O)c1ccc(Cl)cc1-c1cc(=O)n([C@@H](Cc2ccn(C3CC3)n2)C(=O)Nc2ccc(C(=O)O)cc2)cc1OC` [Example 92, (S)-4-(2-(4-(5-chloro-2-propionylphenyl)-5-methoxy-2-oxopyridin-1(2H)-yl)-3-(1-cyclopropyl-1H-pyrazol-3-yl)propanamido)benzoic acid], for which the “CT2 (compound concentration doubling APTT)” value came out at 1.2 µM.

With `CCC(=O)c1ccc(Cl)cc1-c1cc(=O)n([C@@H](CCOC(C)(C)C)C(=O)Nc2ccc3nccnc3c2)cc1OC` [Example 114, (S)-4-(tert-butoxy)-2-(4-(5-chloro-2-propionylphenyl)-5-methoxy-2-oxopyridin-1(2H)-yl)-N-(quinoxalin-6-yl)butanamide], the “CT2 (compound concentration doubling APTT)” value came to 3.6 µM.

As for `COCC[C@@H](C(=O)Nc1ccc2[nH]c(C(=O)O)cc2c1)n1cc(OC)c(-c2cc(Cl)ccc2C(C)=O)cc1=O` [Example 2, (S)-5-(2-(4-(2-acetyl-5-chlorophenyl)-5-methoxy-2-oxopyridin-1(2H)-yl)-4-methoxybutanamido)-1H-indole-2-carboxylic acid], the “CT2 (compound concentration doubling APTT)” value turned out to be 2.9 µM.

For `CCC(=O)c1ccc(Cl)cc1-c1cc(=O)n([C@@H](CCOC(C)(C)C)C(=O)Nc2ccc(C(=O)O)cc2)cc1OC` [Example 108, (S)-4-(4-(tert-butoxy)-2-(4-(5-chloro-2-propionylphenyl)-5-methoxy-2-oxopyridin-1(2H)-yl)butanamido)benzoic acid], the “CT2 (compound concentration doubling APTT)” value worked out at 1.4 µM.

Staying with this test, now noted: Table 3 comparison with similar compounds in the published patents; human plasma.
`COc1cn([C@@H](CCOC(C)(C)C)C(=O)Nc2ccc3nccnc3c2)c(=O)cc1-c1cc(Cl)ccc1-c1nc(C)no1` [Comparative Example 2, (S)-4-(tert-butoxy)-2-(4-(5-chloro-2-(3-methyl-1,2,4-oxadiazol-5-yl)phenyl)-5-methoxy-2-oxopyridin-1 (2H)-yl)-N-(quinoxalin-6-yl)butanamide, reference compound]: the “CT2 (compound concentration doubling APTT)” value stood at 13.1 µM.

In the case of `CCC(=O)c1ccc(Cl)cc1-c1cc(=O)n([C@@H](CCOC(C)(C)C)C(=O)Nc2ccc3nccnc3c2)cc1OC` [Example 114, (S)-4-(tert-butoxy)-2-(4-(5-chloro-2-propionylphenyl)-5-methoxy-2-oxopyridin-1(2H)-yl)-N-(quinoxalin-6-yl)butanamide], the “CT2 (compound concentration doubling APTT)” value was found to be 2.9 µM.

The test is the same for the next values; noted with them: from Table 3.
With `CCC(=O)c1ccc(Cl)cc1-c1cc(=O)n([C@@H](CCOC(C)(C)C)C(=O)Nc2ccc3nccnc3c2)cc1OC` [Example 114, (S)-4-(tert-butoxy)-2-(4-(5-chloro-2-propionylphenyl)-5-methoxy-2-oxopyridin-1(2H)-yl)-N-(quinoxalin-6-yl)butanamide], the “CT2 value ratio of Example 114 and comparative Example 2” value worked out at 4.5 times.
